Laboratory results reported in PubChem BioAssay (NCI).
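Protocol summary: plate cells (96-well), add compound at 5 concentrations, incubate 48 h, interpolate endpoints linearly. The concentration for full growth arrest is given as TGI.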

Columns and labels:
Experiment in all cases: NCI tumour cell line growth inhibition, 48 h
DU-145 prostate = test system: DU-145 prostate
MDA-MB-435 = test system: MDA-MB-435
A549 NSCLC = test system: A549 NSCLC
NCI-H460 lung = test system: NCI-H460 lung
CAKI-1 renal = test system: CAKI-1 renal
SW-620 colon = test system: SW-620 colon
SF-295 CNS = test system: SF-295 CNS
BT-549 breast = test system: BT-549 breast
MDA-MB-231 breast = test system: MDA-MB-231 breast
ACHN renal = test system: ACHN renal
HL-60(TB) leukemia = test system: HL-60(TB) leukemia
NCI/ADR-RES ovarian = test system: NCI/ADR-RES ovarian
NCI-H23 lung = test system: NCI-H23 lung
SK-MEL-28 melanoma = test system: SK-MEL-28 melanoma
UACC-62 melanoma = test system: UACC-62 melanoma
MCF7 breast = test system: MCF7 breast
EKVX NSCLC = test system: EKVX NSCLC
HCT-15 colon = test system: HCT-15 colon
SNB-75 CNS = test system: SNB-75 CNS
UO-31 renal = test system: UO-31 renal

| SMILES | TGI (DU-145 prostate) [µM] | TGI (MDA-MB-435) [µM] | TGI (A549 NSCLC) [µM] | TGI (NCI-H460 lung) [µM] | TGI (CAKI-1 renal) [µM] | TGI (SW-620 colon) [µM] | TGI (SF-295 CNS) [µM] | TGI (BT-549 breast) [µM] | TGI (MDA-MB-231 breast) [µM] | TGI (ACHN renal) [µM] | TGI (HL-60(TB) leukemia) [µM] | TGI (NCI/ADR-RES ovarian) [µM] | TGI (NCI-H23 lung) [µM] | TGI (SK-MEL-28 melanoma) [µM] | TGI (UACC-62 melanoma) [µM] | TGI (MCF7 breast) [µM] | TGI (EKVX NSCLC) [µM] | TGI (HCT-15 colon) [µM] | TGI (SNB-75 CNS) [µM] | TGI (UO-31 renal) [µM] |
| --- | --- | --- | --- | --- | --- | --- | --- | --- | --- | --- | --- | --- | --- | --- | --- | --- | --- | --- | --- | --- |
| NC(N)=Nc1ccc(-c2ccc(N=C(N)N)cc2)cc1 | > 76.1 | > 100 | > 100 | > 100 | > 100 | > 100 | > 100 | > 100 | > 100 | > 100 | > 100 | > 100 | > 100 | > 100 | > 100 | > 100 | > 100 | > 100 | 86.1 | > 100 |
| Cc1ccc(N=N/C(=N/NC(=O)c2cc(Cl)ccc2O)c2ccc(N(CCC#N)CCC#N)cc2C)cc1 | > 100 | > 100 | > 100 | 68.8 | > 100 |  | 83.3 | 88.7 | > 100 | 70.4 | > 100 | > 100 | 55.9 |  | 59.7 | > 100 | > 100 | > 100 | 86.8 | 64.9 |
| NC1c2c(Br)sc(N3CCCC3)c2C(=O)C1O (centres undefined) | > 50 | > 50 | > 50 | > 50 | > 50 | > 50 | > 50 | > 50 | > 50 | > 50 | > 50 | > 50 | > 50 |  | > 50 | > 50 | > 50 | > 50 | > 50 | > 50 |
| Cc1ccc(-c2n[nH]c(Cc3nc(-c4ccc(C)cc4)n[nH]3)n2)cc1 | > 100 | > 100 | > 100 |  |  | > 100 | > 100 | > 100 | > 100 | > 100 |  | > 100 | > 100 | > 100 | > 100 | > 100 | > 100 | > 100 | > 100 | > 100 |
| Cn1c2ccc([N+](=O)[O-])cc2c(=O)n1Cc1ccccc1F | > 100 | > 100 | > 100 | > 100 | > 100 | > 100 | > 100 | > 100 | > 100 | > 100 | > 100 | 76.3 | > 100 | > 100 | > 100 | > 100 | > 100 | > 100 | 70.2 | > 100 |
| COC(=O)NC(Nc1ccccn1)(C(F)(F)F)C(F)(F)F | > 100 | > 100 | > 100 | > 100 | > 100 | > 100 |  | > 100 | > 100 | > 100 | > 100 | > 100 | > 100 | > 100 | > 100 | > 100 | > 100 | > 100 | > 100 | > 100 |
| O=c1ccn([C@@H]2C[C@H]2CO)c(=O)[nH]1 | > 100 | > 100 | > 100 | > 100 | > 100 | > 100 |  | > 100 | > 100 | > 100 | > 100 | > 100 | > 100 | > 100 | > 100 | > 100 | > 100 | > 100 | > 100 | > 100 |
| CC(C)=C1C(=O)C[C@]2(C)C[C@H]3O[C@]3(C)CC[C@@H]3O[C@@]3(C)CC[C@@H]12 | > 50 | > 50 | > 50 | > 50 | > 50 | > 50 | > 50 | > 50 | > 50 | > 50 | > 50 | > 50 | > 50 | > 50 | > 50 | > 50 | > 50 | > 50 | > 50 | > 50 |
| NC(=O)c1ccc(C(=O)Nc2ccc([As](=O)(O)O)cc2)cc1 | > 100 | > 100 | > 100 | > 100 | > 100 | > 100 | > 100 | > 100 | > 100 | > 100 | > 100 | > 100 | > 100 | > 100 | > 100 | > 100 | > 100 | > 100 | > 100 | > 100 |
| C=Cc1nc2c(Cl)ncnc2n1Cc1ccccc1 | 7.2 | 10.1 | 29.1 | 23.6 | 3.99 | 23.2 | 32.2 | 10.9 | 19.1 | 3.59 | 9.17 | 23.1 | 11.6 | 11.3 | 19.8 | 9.53 | 10.3 | 8.05 | 28.4 | 6.02 |
| O=[N+]([O-])C(=C(Cl)Cl)C(Cl)=C(Cl)Cl | 24 | 1.07 | 19.6 | 5.21 | 0.699 | 0.157 | 9.54 | 0.528 | 2.11 | 2.05 | 0.0573 | 5.45 | 1.96 | 0.912 | 1.75 | 0.992 | 11.2 | 0.908 | 3.35 | 2.94 |
| C/C(=C\CO)CC/C=C(\C)CNc1c(F)c(F)c(F)c(F)c1F | > 100 | 53.8 | 94.8 | > 100 | > 100 | > 100 | 52.9 | 22.3 | 40.5 | > 100 | 65.8 | 86.2 | > 100 | 41.1 | 37.9 | 70.1 | 98.3 | 85.4 | 66.3 | 80.8 |
| COc1cc(NC(C)c2ccc3c(c2)OCCO3)cc(OC)c1OC (centres undefined) | > 100 | 32 | > 100 | > 100 | > 100 | > 100 | > 100 | > 100 | > 100 | > 100 | 48.6 | 91.4 | 64.7 | > 100 | > 100 | > 100 | > 100 | > 100 |  | > 100 |
| COc1ccccc1CCN1CCN(CCCc2ccccc2)CC1 | > 100 | > 100 | > 100 | > 100 | > 100 | > 100 | > 100 | > 100 | > 100 | > 100 | > 100 | > 100 |  | > 100 | > 100 | > 100 | > 100 | > 100 | > 100 | > 100 |
| C=CCC1(O)CC(n2cc(C)c(=O)[nH]c2=O)OC1CO[Si](C)(C)C(C)(C)C (centres undefined) | > 100 | > 100 | > 100 | > 100 | > 100 | > 100 | > 100 | > 100 | > 100 | > 100 |  | > 100 | > 100 | > 100 | > 100 | > 100 | > 100 | > 100 | > 100 | > 100 |
| Nc1ccccc1-c1noc(=O)[nH]1 | > 100 | > 100 | > 100 |  | > 100 | > 100 | > 100 | > 100 | > 100 | > 100 |  | > 100 | > 100 | > 100 | > 100 | > 100 | > 100 | > 100 | > 100 | > 100 |
| CN(C)CCNc1ccc([N+](=O)[O-])c2sc3ccccc3c(=O)c12 | 31.5 | 27.4 | 20.2 | 7.49 |  | > 100 | > 100 | 17.2 | 9.39 | 13.2 | 12.5 | 54.2 | 29.5 | 21.5 | 16.8 | 15.2 | 25.2 | 23.6 | 35.6 | 30.8 |
| N#CC(C#N)=C1C(=Cc2ccc(OCCCCCCCCCCSSCCCCCCCCCCOc3ccc(C=C4C(=C(C#N)C#N)c5ccccc5C4=C(C#N)C#N)cc3)cc2)C(=C(C#N)C#N)c2ccccc21 | 47.7 | > 100 | 31 | 44.7 | 71.2 | 52.1 | 45.7 | 38.9 | > 100 | > 100 | 2.36 | 38.8 | 32.6 | 52.4 |  | 48 | 43.1 | 31.6 | > 100 | 40.2 |
| Cn1c(=O)c2c3ccccc3n(C)c2n(C)c1=O | > 100 | > 100 | > 100 |  | > 100 | > 100 | > 100 | > 100 | > 100 | > 100 | > 100 | > 100 | > 100 |  | > 100 | > 100 | > 100 | > 100 | > 100 | > 100 |
| O=C1NC(N/N=C/C(O)C(O)C(O)C(O)CO)=N/C1=C\c1ccco1 (centres undefined) | > 100 | > 100 | > 100 | > 100 | > 100 | > 100 | > 100 | > 100 | > 100 | > 100 | > 100 | > 100 | > 100 | > 100 | > 100 | > 100 | > 100 | > 100 | > 100 |  |
| C=C(C)[C@@H]1CCC2=C[C@@H](OC2=O)[C@@H](C(=C)C)C2=CC(C(=O)O)=C(C1)O2 | > 100 | > 100 | > 100 |  | > 100 | > 100 | > 100 | > 100 | > 100 | > 100 | > 100 | > 100 | > 100 |  | > 100 | > 100 | > 100 | > 100 | > 100 | > 100 |
| Cc1sc(Nc2ccc(Nc3nc(-c4ccccc4)c(C)s3)cc2)nc1-c1ccccc1 | > 100 | > 100 | > 100 | > 100 | > 100 | > 100 | > 100 | > 100 | > 100 | > 100 |  | > 100 | > 100 | > 100 | > 100 | 71.5 | > 100 | > 100 | > 100 | > 100 |
| CC(=O)c1cccc(Nc2nc3ccccc3c3occc23)c1 | > 100 | > 100 | > 100 | > 100 | > 100 |  | 48.4 | 39.6 | 56.4 | 39.9 | > 100 | > 100 | 50.8 | > 100 |  | > 100 | > 100 | > 100 | 45.2 |  |
| COc1ccc(NC(=S)Nc2cc(C)cc(C)n2)cc1 | > 100 | > 100 | > 100 | > 100 | > 100 | > 100 | > 100 | > 100 | > 100 |  | > 100 | > 100 |  | > 100 | > 100 | > 100 | > 100 | > 100 | > 100 | > 100 |
